Experimental data published in patent US20060122101A1, “Drug for preventing, regulating or treating adhesion” (priority 2003, published 2006).

Key:
[1] = cited from earlier work
chymase = target: T1, chymase (Homo sapiens, UniProt P23946); test: Chymase activity in blood vessel tissue of the living body after use during operation; format: in vivo; settings: 10 μM during the operation; for 4 weeks
T1 construct: the chymase activity in the blood vessel tissue of the living body; from tissue; host or cells: blood vessel tissue of the living body
T1 sequence (P23946 22-247): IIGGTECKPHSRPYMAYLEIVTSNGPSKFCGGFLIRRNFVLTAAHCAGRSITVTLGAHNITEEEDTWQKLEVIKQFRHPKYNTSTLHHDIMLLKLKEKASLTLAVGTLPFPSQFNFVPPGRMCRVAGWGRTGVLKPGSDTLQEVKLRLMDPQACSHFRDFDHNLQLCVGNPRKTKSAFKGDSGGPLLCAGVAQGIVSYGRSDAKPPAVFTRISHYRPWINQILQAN
Procedure: The medicament of the present invention allows at least one protease inhibitor to be administered in a substantially sufficient amount to permit epithelialization in the site of adhesion formation. […] The effective administration amount of chymase inhibitor (Suc-Val-Pro-L-Phe^P(OPh)2) can be selected in the range of 0.0001 to 100 mg per 1 kg of adult body weight, per one day. For example, it can be administered intravenously by an amount selected in the range from 0.0001 to 100 mg, preferably from 0.01 to 1 mg, and orally by an amount selected in the range from 0.1 to 100 mg, preferably from 0.1 to 10 mg. Furthermore, it can be intravenously applied by an amount in the range from 0.0001 to 1000 mg, preferably from 0.1 to 100 mg.

human leukocyte elastase = human leukocyte elastase (Homo sapiens, UniProt P08246); settings: cited from earlier work
[2] = system: chymotrypsin and chymotrypsin-like enzymes; settings: cited from earlier work
[3] = system: Cardiac muscle adhesion models; test: Prevention of adhesion by oral administration in hamster cardiac muscle adhesion model; format: in vivo, Syrian hamsters; settings: 10 mg/kg orally once a day
Procedure: Syrian hamsters (SLC Co., Ltd.), 6 weeks of age (weighing 85-90 g), were subject to abdominal middle incision to scrape their hearts. Cardiac muscle adhesion models were prepared. Suc-Val-Pro-Phe^P(OPh)2 (10 mg/kg) (eight cases) or placebo (eight cases) was forcibly orally administered using a canal once a day from the 3rd day before the model preparation to the 14th day after the model preparation. The adhesion levels at the 14th day after the model preparation were compared to study. Adhesion scores are as follows. Student-t test was used to test a significant difference in adhesion core.
Adhesion level 0: A heart is easily taken out, and the heart exists independently from the circumference, as is similar to a normal heart.
Adhesion level 1: A heart is observed to adhere to the circumferential tissue at one site by a thin film, but the adhesion site can be simply freed to release the heart.
Adhesion level 2: A heart is observed to adhere to the circumferential tissue at a few sites, but the adhesion sites can be freed by a traction force to release the heart.
Adhesion level 3: A heart is firmly adhered, but is distinguishable from, to the circumferential tissue at several sites, and it is hard to release the heart without a strong traction force.
Adhesion level 4: Excessive cell growth and fibrosis occur around a heart, and the heart is observed to adhere to the circumferential tissue. The heart is so firmly adhered to the circumferential tissue that the heart is difficult to release even by a peeling traction force.

[4] = 3rd day before to 14th day after model preparation, eight cases

Sequence of human leukocyte elastase (P08246 30-267): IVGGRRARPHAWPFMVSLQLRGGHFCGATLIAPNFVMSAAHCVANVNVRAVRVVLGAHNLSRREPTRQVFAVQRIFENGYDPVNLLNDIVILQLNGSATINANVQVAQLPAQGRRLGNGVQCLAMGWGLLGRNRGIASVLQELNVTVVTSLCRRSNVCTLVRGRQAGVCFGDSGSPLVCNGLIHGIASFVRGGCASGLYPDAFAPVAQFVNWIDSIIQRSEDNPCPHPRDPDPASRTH

Compound: CC(C)C(NC(=O)CCC(=O)O)C(=O)N1CCCC1C(=O)NC(Cc1ccccc1)P(=O)(Oc1ccccc1)Oc1ccccc1 [Suc-Val-Pro-L-Phe^P(OPh)2]
- half-life in human blood plasma [1]: about 20 hours
- suppression of chymase activity in the blood vessel tissue (chymase): suppress significantly

Compound: Boc-Val-Pro-Val^P(OPh)2
- inhibitor potency with human leukocyte elastase (human leukocyte elastase): relatively potent inhibitors

Compound: Meo-Suc-Ala-Ala-Pro-Val^P(OPh)2
- inhibitor potency with human leukocyte elastase (human leukocyte elastase): relatively potent inhibitors

Compound: Suc-Val-Pro-Phe^P(OPh)2
- half-life in human blood plasma [1]: about 20 hours
- inhibitor potency for chymotrypsin and chymotrypsin-like enzymes [2]: relatively potent inhibitor
- cases ranked as adhesion level 0 [3, 4]: 75%
- cases ranked as adhesion level 2 [3, 4]: 12.5%
- cases ranked as adhesion level 4 [3, 4]: 12.5%
- adhesion level versus placebo group ([3]; 14th day, Student-t test): fell down significantly in adhesion level
